From patent publication US20250368649A1, “TETRAHYDROPYRIDOPYRIMIDINE PAN-KRAS INHIBITORS” (Mirati Therapeutics, Inc., priority 2022, published 2025) come the findings set out here.

One assay addresses KRas G12R (Homo sapiens, UniProt P01116, G12R). The experiment in a line: biochemical. The settings on record: Binding to KRas (IC50 nM) G12R, TR-FRET displacement, KRas G12R.
The next assay concerns MKN1 cells. Briefly: Inhibition of KRas-mediated phosphorylation of ERK (Cisbio HTRF pERK), MKN1 cells. Conditions: Homo sapiens, MKN-1, 3 hour compound incubation, Cisbio pERK HTRF. The format is cell-based. The gist of the method: (§1)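 Phospho-ERK signal measured by HTRF after cells had been plated at 6,000/well in RPMI supplemented with 10% FBS on day 1.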
Another assay concerns ASPC1 cells. The experiment in a line: Inhibition of KRas-mediated phosphorylation of ERK (Cisbio HTRF pERK), ASPC1 cells. The format is cell-based. The settings on record: Homo sapiens, AsPC-1 cells; for IC50: ASPC1, 3 h, 3 hr compound incubation, Cisbio pERK HTRF; for inhibition at 0.1 µM: ASPC1, single point at 100 nM, 3 hrs compound incubation.
Another assay addresses KRas G12V (Homo sapiens, UniProt P01116, G12V). The experiment in a line: biochemical. The settings on record: Binding to KRas (IC50 nM) G12V, TR-FRET displacement, KRas G12V.
For another assay, the target named is KRas G13D (Homo sapiens, UniProt P01116, G13D). The format is binding. The settings on record: single point, 10 nM compound, read-out: Binding to KRas (% inhibition at 10 nM) G13D.
Sequence of KRas G13D (P01116 1-169 isoform P01116-2 G13D): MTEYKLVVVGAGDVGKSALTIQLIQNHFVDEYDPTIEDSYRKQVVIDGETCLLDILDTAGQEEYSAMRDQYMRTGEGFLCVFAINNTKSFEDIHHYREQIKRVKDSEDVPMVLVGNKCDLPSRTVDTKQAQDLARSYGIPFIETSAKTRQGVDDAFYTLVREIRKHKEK
A further assay concerns the target KRas G12D (Homo sapiens, UniProt P01116, G12D). Briefly: biochemical. The settings on record: Binding to KRas (IC50 nM) G12D, TR-FRET displacement, KRas G12D.
For the next assay, the target named is KRas G12C (Homo sapiens, UniProt P01116, G12C). Type of assay: binding. The settings on record: single point, 10 nM compound, read-out: Binding to KRas (% inhibition at 10 nM) G12C.
Sequence of KRas G12C (P01116 1-169 isoform P01116-2 G12C): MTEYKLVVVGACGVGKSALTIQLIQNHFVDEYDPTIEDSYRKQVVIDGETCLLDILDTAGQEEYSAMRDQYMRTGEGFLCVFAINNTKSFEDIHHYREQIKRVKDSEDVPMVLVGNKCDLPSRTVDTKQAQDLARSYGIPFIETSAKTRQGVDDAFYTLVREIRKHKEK
The subject of the next assay is A549 cells. Briefly: Inhibition of KRas-mediated phosphorylation of ERK (Cisbio HTRF pERK), A549 cells. The format is cell-based. Conditions: Homo sapiens; for IC50: A549, 3 h, 3 hr compound incubation, Cisbio pERK HTRF; for inhibition at 0.1 µM: single point at 100 nM, 3 hrs compound incubation.
A further assay concerns the target KRas G12S (Homo sapiens, UniProt P01116, G12S). The format is binding. Conditions: single point, 10 nM compound, read-out: Binding to KRas (% inhibition at 10 nM) G12S.
In the next assay the test system is PSN1 cells. Briefly: Inhibition of KRas-mediated phosphorylation of ERK (Cisbio HTRF pERK), PSN1 cells. Type of assay: cell-based. Conditions: Homo sapiens, PSN1, 3 h, 3 hour compound incubation, Cisbio pERK HTRF. Put shortly:
as §1

The next assay concerns the target KRas WT (Homo sapiens, UniProt P01116). The experiment in a line: KRas binding assay (TR-FRET displacement), KRas WT. The settings on record: single point, 10 nM compound.
In the next assay the test system is H727 cells. Briefly: Inhibition of KRas-mediated phosphorylation of ERK (Cisbio HTRF pERK), H727 cells. Type of assay: cell-based. The settings on record: Homo sapiens; for IC50: NCI-H727, 3 h, 3 hr compound incubation, Cisbio pERK HTRF; for inhibition at 0.1 µM: NCI-H727, single point at 100 nM, 3 hrs compound incubation.
A further assay addresses KRas Q61H (Homo sapiens, UniProt P01116, Q61H). Briefly: KRas binding assay (TR-FRET displacement), KRas Q61H. The settings on record: single point, 10 nM compound.
The target of another assay is KRas G12A (Homo sapiens, UniProt P01116, G12A). Type of assay: binding. Conditions: single point, 10 nM compound, read-out: Binding to KRas (% inhibition at 10 nM) G12A.
Sequence of KRas G12A (P01116 1-169 isoform P01116-2 G12A): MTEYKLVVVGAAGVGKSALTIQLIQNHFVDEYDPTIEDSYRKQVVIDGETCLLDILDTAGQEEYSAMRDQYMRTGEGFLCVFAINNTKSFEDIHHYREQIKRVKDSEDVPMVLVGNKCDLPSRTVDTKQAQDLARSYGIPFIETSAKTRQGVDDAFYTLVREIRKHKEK
Another assay has as its system H358 cells. Briefly: Inhibition of KRas-mediated phosphorylation of ERK (Cisbio HTRF pERK), H358 cells. The format is cell-based. The settings on record: Homo sapiens; for IC50: NCI-H358, 3 h, 3 hr compound incubation, Cisbio pERK HTRF; for inhibition at 0.1 µM: NCI-H358, single point at 100 nM, 3 hrs compound incubation.
The subject of another assay is H460 cells. The experiment in a line: Inhibition of KRas-mediated phosphorylation of ERK (Cisbio HTRF pERK), H460 cells. Type of assay: cell-based. Conditions: Homo sapiens; for IC50: NCI-H460, 3 h, 3 hr compound incubation, Cisbio pERK HTRF; for inhibition at 0.1 µM: NCI-H460, single point at 100 nM, 3 hrs compound incubation.
The subject of another assay is HCT116 cells. Briefly: Inhibition of KRas-mediated phosphorylation of ERK (Cisbio HTRF pERK), HCT116 cells. Type of assay: cell-based. The settings on record: Homo sapiens; for IC50: HCT-116, 3 h, 3 hr compound incubation, Cisbio pERK HTRF; for inhibition at 0.1 µM: HCT-116, single point at 100 nM, 3 hrs compound incubation.

Sequence of KRas G12S (P01116 1-169 isoform P01116-2 G12S): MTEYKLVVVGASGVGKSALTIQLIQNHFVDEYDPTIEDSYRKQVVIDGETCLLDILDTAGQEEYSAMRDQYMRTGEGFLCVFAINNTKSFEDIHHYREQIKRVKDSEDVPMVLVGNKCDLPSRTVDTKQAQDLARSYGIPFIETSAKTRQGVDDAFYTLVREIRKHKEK
Sequence of KRas G12R (P01116 1-169 isoform P01116-2 G12R): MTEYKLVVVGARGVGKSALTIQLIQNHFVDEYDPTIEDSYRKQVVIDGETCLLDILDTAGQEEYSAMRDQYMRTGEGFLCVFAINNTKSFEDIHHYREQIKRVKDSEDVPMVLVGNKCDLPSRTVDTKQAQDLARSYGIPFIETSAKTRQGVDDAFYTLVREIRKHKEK
Sequence of KRas WT (P01116 1-169 isoform P01116-2): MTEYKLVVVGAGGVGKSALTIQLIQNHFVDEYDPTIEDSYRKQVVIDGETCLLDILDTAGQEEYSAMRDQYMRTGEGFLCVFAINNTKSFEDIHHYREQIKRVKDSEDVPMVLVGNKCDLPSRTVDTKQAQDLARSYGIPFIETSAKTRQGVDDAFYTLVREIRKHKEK
Sequence of KRas G12D (P01116 1-169 isoform P01116-2 G12D): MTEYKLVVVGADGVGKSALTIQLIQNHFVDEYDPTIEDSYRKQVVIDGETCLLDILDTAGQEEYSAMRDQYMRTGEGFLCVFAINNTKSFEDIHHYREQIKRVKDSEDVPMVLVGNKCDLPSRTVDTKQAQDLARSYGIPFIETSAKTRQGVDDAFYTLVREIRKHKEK
Sequence of KRas Q61H (P01116 1-169 isoform P01116-2 Q61H): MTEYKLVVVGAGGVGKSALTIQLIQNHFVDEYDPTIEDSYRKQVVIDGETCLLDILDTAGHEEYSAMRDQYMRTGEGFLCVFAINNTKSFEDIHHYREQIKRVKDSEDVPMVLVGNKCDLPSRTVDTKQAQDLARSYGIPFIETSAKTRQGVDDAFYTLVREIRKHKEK
Sequence of KRas G12V (P01116 1-169 isoform P01116-2 G12V): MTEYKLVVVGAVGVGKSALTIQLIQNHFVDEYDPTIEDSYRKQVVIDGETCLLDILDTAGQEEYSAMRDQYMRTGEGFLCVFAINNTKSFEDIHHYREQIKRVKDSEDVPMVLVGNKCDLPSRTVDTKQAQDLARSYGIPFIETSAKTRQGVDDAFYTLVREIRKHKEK

As for `CCc1c(F)ccc2cc(O)cc(N3CCc4c(nc(OC[C@@]56CCCN5C[C@H](F)C6)nc4N4CCCn5nc(N)c(Br)c5C4)C3)c12` [Example 296, 4-(4-(2-amino-3-bromo-7,8-dihydro-4H-pyrazolo[1,5-a][1,4]diazepin-5(6H)-yl)-2-(((2R,7aS)-2-fluorohexahydro-1H-pyrrolizin-7a-yl)methoxy)-5,6-dihydropyrido[3,4-d]pyrimidin-7(8H)-yl)-5-ethyl-6-fluoronaphthalen-2-ol], the IC50 was < 2 nM at KRas G12R; 8.9 nM with MKN1 cells; 4 nM with ASPC1 cells; < 2 nM on KRas G12V; < 2 nM on KRas G12D; 12 nM in the assay with A549 cells. Moreover, the IC50 with PSN1 cells is 6580 nM; in the assay on H727 cells it was 20 nM; with H358 cells, 5 nM; in the assay with H460 cells it was 38 nM; with HCT116 cells, 118 nM. Also, the inhibition at 0.1 µM stood at 94% in the assay on ASPC1 cells; 86% with A549 cells; 67% with H727 cells; 98% in the assay on H358 cells; 78% with H460 cells; 51% with HCT116 cells. The inhibition at 0.01 µM at KRas G13D turned out to be 93%; at KRas G12C, 98%; at KRas G12S, 98%; on KRas WT, 93%; on KRas Q61H, 93%; at KRas G12A, 94%.

As for `CCNC(=O)c1cc2n(n1)CCCCN(c1nc(OC[C@@]34CCCN3C[C@H](F)C4)nc3c1CCN(c1cc(O)cc4ccc(F)c(CC)c14)C3)C2` [Example 301, N-ethyl-5-(7-(8-ethyl-7-fluoro-3-hydroxynaphthalen-1-yl)-2-(((2R,7aS)-2-fluorotetrahydro-1H-pyrrolizin-7a(5H)-yl)methoxy)-5,6,7,8-tetrahydropyrido[3,4-d]pyrimidin-4-yl)-4,5,6,7,8,9-hexahydropyrazolo[1,5-a][1,4]diazocine-2-carboxamide], the IC50 at KRas G12R is < 2 nM; with MKN1 cells it was 12.9 nM; with ASPC1 cells, 12 nM; on KRas G12V it was < 2 nM; on KRas G12D, < 2 nM; with PSN1 cells it was 655 nM. In addition, the midpoint of inhibition with H727 cells, the IC50, lay at 6 nM. For the same compound, the inhibition at 0.01 µM at KRas G13D was determined as 91%; at KRas G12C, 99%; at KRas G12S, 97%; at KRas WT, 89%; on KRas Q61H, 94%; at KRas G12A it was 89%. Further, the inhibition at 0.1 µM in the assay on A549 cells was 85%; with H358 cells, 102%; in the assay on H460 cells, 54%; with HCT116 cells it was 34%.

For the compound `CCc1c(F)ccc2cc(O)cc(N3CCc4c(nc(OC[C@@]56CCCN5C[C@H](F)C6)nc4N4CCCn5nc(C(=O)N6CC7CCC(C7)C6)cc5C4)C3)c12` [Example 302, 3-azabicyclo[3.2.1]octan-3-yl(5-(7-(8-ethyl-7-fluoro-3-hydroxynaphthalen-1-yl)-2-(((2R,7aS)-2-fluorohexahydro-1H-pyrrolizin-7a-yl)methoxy)-5,6,7,8-tetrahydropyrido[3,4-d]pyrimidin-4-yl)-5,6,7,8-tetrahydro-4H-pyrazolo[1,5-a][1,4]diazepin-2-yl)methanone], the IC50 at KRas G12R is < 2 nM; with MKN1 cells, 26.3 nM; in the assay on ASPC1 cells it was 9 nM; at KRas G12V it was < 2 nM; on KRas G12D it was 3 nM; with A549 cells, 27 nM. For the same compound, the concentration for half-maximal inhibition (IC50) in the assay with PSN1 cells came out at 9490 nM; in the assay with H727 cells, 20 nM; in the assay on H358 cells it was 6 nM; in the assay on H460 cells, 49 nM; in the assay with HCT116 cells, 167 nM. Further, the inhibition at 0.1 µM in the assay with ASPC1 cells was 91%; in the assay on A549 cells it was 66%; in the assay with H727 cells it was 70%; in the assay on H358 cells, 92%; with H460 cells, 66%; in the assay on HCT116 cells, 33%. Besides, the inhibition at 0.01 µM at KRas G13D is 91%; at KRas G12C, 96%; at KRas G12S it was 93%; on KRas WT, 89%; on KRas Q61H, 93%; at KRas G12A, 85%.

`CCc1c(F)ccc2cc(O)cc(N3CCc4c(nc(OC[C@@]56CCCN5C[C@H](F)C6)nc4N4CCCn5nc(C(=O)N6C[C@@H](C)N[C@@H](C)C6)cc5C4)C3)c12` [Example 303, ((3 S,5R)-3,5-dimethylpiperazin-1-yl)(5-(7-(8-ethyl-7-fluoro-3-hydroxynaphthalen-1-yl)-2-(((2R,7aS)-2-fluorohexahydro-wH-pyrrolizin-7a-yl)methoxy)-5,6,7,8-tetrahydropyrido[3,4-d]pyrimidin-4-yl)-5,6,7,8-tetrahydro-4H-pyrazolo[1,5-a][1,4]diazepin-2-yl)methanone]: the 50% inhibitory concentration (IC50) at KRas G12R is < 2 nM; in the assay with MKN1 cells, 22.5 nM; in the assay on ASPC1 cells it was 2 nM; on KRas G12V it was < 2 nM; on KRas G12D, < 2 nM; in the assay with A549 cells, 35 nM. In addition, the IC50 stood at 6700 nM with PSN1 cells; 36 nM with H727 cells; 8 nM in the assay on H358 cells; 73 nM in the assay on H460 cells; 164 nM with HCT116 cells. In addition, the inhibition at 0.01 µM on KRas G13D was 98%; at KRas G12C it was 100%; on KRas G12S, 99%; on KRas WT, 97%; on KRas Q61H, 98%; on KRas G12A it was 98%. Further, the inhibition at 0.1 µM was determined as 62% in the assay with A549 cells, 98% with H358 cells, 34% with H460 cells and 3% in the assay with HCT116 cells.

Turning to `CCc1c(F)ccc2cc(O)cc(N3CCc4c(nc(OC[C@@]56CCCN5C[C@H](F)C6)nc4N4CCCn5nc(C(=O)N6CC7COCC6C7)cc5C4)C3)c12` (stereo partly drawn) [Example 306, 3-oxa-6-azabicyclo[3.2.1]octan-6-yl(5-(7-(8-ethyl-7-fluoro-3-hydroxynaphthalen-1-yl)-2-(((2R,7aS)-2-fluorohexahydro-1H-pyrrolizin-7a-yl)methoxy)-5,6,7,8-tetrahydropyrido[3,4-d]pyrimidin-4-yl)-5,6,7,8-tetrahydro-4H-pyrazolo[1,5-a][1,4]diazepin-2-yl)methanone], the IC50 on KRas G12R was < 2 nM; in the assay on MKN1 cells, 7 nM; with ASPC1 cells it was 3 nM; at KRas G12V it was < 2 nM; at KRas G12D, < 2 nM; with A549 cells, 16 nM. For the same compound, the IC50 in the assay with PSN1 cells was determined as 2040 nM; in the assay on H727 cells, 5 nM; in the assay on H358 cells, 1 nM; in the assay with H460 cells, 23 nM; in the assay on HCT116 cells it was 58 nM. Further, the inhibition at 0.1 µM in the assay on ASPC1 cells is 99%; in the assay on A549 cells it was 77%; in the assay with H727 cells, 80%; in the assay on H358 cells, 100%; in the assay with H460 cells, 81%; in the assay with HCT116 cells, 51%. Further, the inhibition at 0.01 µM on KRas G13D came out at 97%; on KRas G12C, 99%; at KRas G12S, 99%; on KRas WT it was 95%; at KRas Q61H it was 96%; on KRas G12A, 96%.
